Experiments:
Assay type in all cases: cell-based
[1] = target: 5-hydroxytryptamine receptor 7 (Homo sapiens, UniProt P34969); assay: Displacement of [3H]-5-CT from recombinant human 5HT7B receptor expressed in HEK293 cells measured after 1 hr by microbeta counting method
[2] = target: 5-hydroxytryptamine receptor 2A (Homo sapiens, UniProt P28223); assay: Displacement of [3H]-ketanserin from recombinant human 5HT2A receptor expressed in CHOK1 cells measured after 1 hr by microbeta counting method
D(2) dopamine receptor = D(2) dopamine receptor (Homo sapiens, UniProt P14416); assay: Displacement of [3H]-raclopride from recombinant human D2L receptor expressed in HEK293 cells measured after 1 hr by microbeta counting method
[3] = target: 5-hydroxytryptamine receptor 6 (Homo sapiens, UniProt P50406); assay: Displacement of [3H]-LSD from recombinant human 5HT6 receptor expressed in HEK293 cells measured after 1 hr by microbeta counting method
[4] = target: T1, 5-hydroxytryptamine receptor 1A (Homo sapiens, UniProt P08908); assay: Displacement of [3H]-8-OHDPAT from recombinant human 5HT1A receptor expressed in HEK293 cells measured after 1 hr by microbeta counting method
T1 sequence (P08908 whole entry): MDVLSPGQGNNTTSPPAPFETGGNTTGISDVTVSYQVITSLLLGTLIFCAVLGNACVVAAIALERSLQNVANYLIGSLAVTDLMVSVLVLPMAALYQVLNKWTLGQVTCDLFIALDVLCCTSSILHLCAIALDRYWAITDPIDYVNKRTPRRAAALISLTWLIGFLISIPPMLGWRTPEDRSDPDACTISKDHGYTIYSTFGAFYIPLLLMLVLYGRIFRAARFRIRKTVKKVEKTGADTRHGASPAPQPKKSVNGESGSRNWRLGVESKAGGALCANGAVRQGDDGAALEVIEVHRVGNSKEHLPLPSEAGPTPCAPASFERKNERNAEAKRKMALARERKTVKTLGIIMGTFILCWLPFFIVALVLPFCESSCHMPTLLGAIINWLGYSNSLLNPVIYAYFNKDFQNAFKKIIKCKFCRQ

Sequence of 5-hydroxytryptamine receptor 7 (P34969 whole entry): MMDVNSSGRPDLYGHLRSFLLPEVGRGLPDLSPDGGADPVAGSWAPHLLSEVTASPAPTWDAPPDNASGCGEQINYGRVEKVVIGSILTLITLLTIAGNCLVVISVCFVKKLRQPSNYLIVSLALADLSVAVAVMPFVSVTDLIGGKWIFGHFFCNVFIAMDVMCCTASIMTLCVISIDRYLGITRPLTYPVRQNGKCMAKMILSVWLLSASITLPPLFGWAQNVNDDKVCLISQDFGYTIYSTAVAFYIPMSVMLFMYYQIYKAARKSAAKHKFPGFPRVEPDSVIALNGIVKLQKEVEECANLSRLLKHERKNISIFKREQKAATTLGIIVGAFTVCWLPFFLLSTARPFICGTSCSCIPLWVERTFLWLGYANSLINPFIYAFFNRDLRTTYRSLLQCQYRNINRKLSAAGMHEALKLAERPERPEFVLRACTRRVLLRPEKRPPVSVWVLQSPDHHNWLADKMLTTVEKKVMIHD
Sequence of D(2) dopamine receptor (P14416 whole entry): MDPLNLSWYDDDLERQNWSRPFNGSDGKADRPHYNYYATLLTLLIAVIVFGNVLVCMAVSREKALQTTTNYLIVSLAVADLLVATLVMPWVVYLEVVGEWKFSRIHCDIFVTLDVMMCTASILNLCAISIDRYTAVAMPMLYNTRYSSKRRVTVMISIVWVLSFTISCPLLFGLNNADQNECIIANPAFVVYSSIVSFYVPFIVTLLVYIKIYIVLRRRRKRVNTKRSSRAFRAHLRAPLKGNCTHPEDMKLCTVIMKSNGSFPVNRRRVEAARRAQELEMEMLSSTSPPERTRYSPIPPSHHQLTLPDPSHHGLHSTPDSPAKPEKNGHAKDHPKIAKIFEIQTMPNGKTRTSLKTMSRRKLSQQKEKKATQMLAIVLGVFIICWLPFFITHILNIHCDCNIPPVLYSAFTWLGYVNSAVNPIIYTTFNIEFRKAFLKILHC
Sequence of 5-hydroxytryptamine receptor 2A (P28223 whole entry): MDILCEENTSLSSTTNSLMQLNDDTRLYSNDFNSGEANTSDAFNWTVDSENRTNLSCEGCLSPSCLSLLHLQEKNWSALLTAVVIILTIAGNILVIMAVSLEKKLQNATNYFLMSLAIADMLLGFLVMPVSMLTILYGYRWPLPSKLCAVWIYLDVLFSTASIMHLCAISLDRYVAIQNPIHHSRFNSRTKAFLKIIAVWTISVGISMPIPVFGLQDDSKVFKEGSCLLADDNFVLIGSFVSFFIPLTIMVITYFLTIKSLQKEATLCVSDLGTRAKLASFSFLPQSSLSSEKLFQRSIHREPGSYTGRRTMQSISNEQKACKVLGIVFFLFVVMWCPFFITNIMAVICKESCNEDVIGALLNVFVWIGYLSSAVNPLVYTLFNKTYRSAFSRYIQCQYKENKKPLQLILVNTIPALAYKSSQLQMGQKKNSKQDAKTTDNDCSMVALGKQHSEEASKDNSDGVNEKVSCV
Sequence of 5-hydroxytryptamine receptor 6 (P50406 whole entry): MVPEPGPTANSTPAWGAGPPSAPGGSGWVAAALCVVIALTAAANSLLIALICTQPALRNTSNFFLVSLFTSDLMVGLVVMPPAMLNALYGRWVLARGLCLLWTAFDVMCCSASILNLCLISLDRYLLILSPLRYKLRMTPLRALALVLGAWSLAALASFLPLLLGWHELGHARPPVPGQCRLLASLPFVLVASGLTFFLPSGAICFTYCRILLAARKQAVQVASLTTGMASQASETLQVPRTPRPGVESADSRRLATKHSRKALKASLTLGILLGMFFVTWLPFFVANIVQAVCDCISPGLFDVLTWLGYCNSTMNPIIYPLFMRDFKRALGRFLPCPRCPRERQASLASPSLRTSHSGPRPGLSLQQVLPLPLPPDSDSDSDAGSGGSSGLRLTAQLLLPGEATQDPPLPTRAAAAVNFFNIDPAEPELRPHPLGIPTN

| Ki [1] | Ki [2] | Ki (D(2) dopamine receptor) | Ki [3] | Ki [4] | SMILES |
| --- | --- | --- | --- | --- | --- |
| 184 nM | 892 nM | 867 nM | 1460 nM | 32 nM | O=C1c2cccc3cccc(c23)N1CCCCCCN1CCN(c2ccccn2)CC1 |
| 3740 nM | 1930 nM | 180 nM | 3670 nM | 291 nM | COc1ccc(N2CCN(CCCCCCN3C(=O)c4cccc5cccc3c45)CC2)cc1 |
| 116000 nM | 60100 nM | 40000 nM | 5760 nM | 3570 nM | COc1ccc(N2CCN(CCCCCCN3C(=O)c4cccc5cccc(c45)C3=O)CC2)cc1 |
| 822 nM | 533 nM | 264 nM | 494 nM | 482 nM | O=[N+]([O-])c1ccccc1N1CCN(CCCCCCN2c3cccc4cccc(c34)S2(=O)=O)CC1 |
| 119 nM | 222 nM | 82 nM | 999 nM | 22 nM | O=C1c2cccc3cccc(c23)N1CCCCCCN1CCN(c2cccc3cccnc23)CC1 |
| 696 nM | 3980 nM | 431 nM | 952 nM | 9470 nM | O=C1c2cccc3cccc(c23)N1CCCCCCN1CCN(c2ccccc2[N+](=O)[O-])CC1 |
| 710 nM | 1920 nM | 141 nM | 1410 nM | 373 nM | O=C1c2cccc3cccc(c23)C(=O)N1CCCCCCN1CCN(c2ccccc2[N+](=O)[O-])CC1 |
| 475 nM | 43 nM | 188 nM | 5250 nM | 94 nM | O=C1c2cccc3cccc(c23)N1CCCCCCN1CCN(c2ncccn2)CC1 |
| 73 nM | 461 nM | 27 nM | 246 nM | 28 nM | CCOc1ccccc1N1CCN(CCCCCCN2C(=O)c3cccc4cccc(c34)C2=O)CC1 |
| 371 nM | 334 nM | 271 nM | 347 nM | 47 nM | COc1cccc(N2CCN(CCCCCCN3C(=O)c4cccc5cccc(c45)C3=O)CC2)c1 |
| 291 nM | 456 nM | 2 nM | 3270 nM | 19 nM | COc1ccccc1N1CCN(CCCCCCn2c(=O)n3c4c(cccc42)CCC3)CC1 |
| 366 nM | 652 nM | 114 nM | 1700 nM | 47 nM | COc1cccc(N2CCN(CCCCCCN3C(=O)c4cccc5cccc3c45)CC2)c1 |
| 34 nM | 578 nM | 30 nM | 476 nM | 48 nM | CCOc1ccccc1N1CCN(CCCCCCN2c3cccc4cccc(c34)S2(=O)=O)CC1 |
| 1200 nM | 563 nM | 1300 nM | 1970 nM | 172 nM | O=C1c2cccc3cccc(c23)C(=O)N1CCCCCCN1CCN(c2ccccn2)CC1 |
| 344 nM | 443 nM | 118 nM | 182 nM | 35 nM | O=S1(=O)c2cccc3cccc(c23)N1CCCCCCN1CCN(c2ccccn2)CC1 |
| 266 nM | 337 nM | 10 nM | 671 nM | 20 nM | COc1ccccc1N1CCN(CCCCCCN2C(=O)c3cccc4cccc(c34)C2=O)CC1 |
| 84 nM | 717 nM | 11 nM | 1920 nM | 22 nM | CCOc1ccccc1N1CCN(CCCCCCN2C(=O)c3cccc4cccc2c34)CC1 |
